Data on one compound can be found in paper PMC11513923, “Discovery of ZLC491 as a Potent, Selective, and Orally Bioavailable CDK12/13 PROTAC Degrader” (Journal of Medicinal Chemistry, 2024).

SMILES strings stand for the structures.

In series [1] the test system is MDA-MB-231 xenograft tumors. The experiment in a line: Histology of tumors (H&E staining, TUNEL IHC) in MDA-MB-231 xenograft model. In kind it is in vivo, mouse. As to conditions: 100 and 200 mg/kg orally, 5 days; particularly at 200 mg/kg. The procedure:
(§1) We further performed pharmacodynamic studies of ZLC491 in an MDA-MB-231 xenografted mouse model. ZLC491 was orally administrated at two doses of 100 and 200 mg/kg, respectively, for 5 consecutive days (Figure 7A). Tumor tissues were harvested on day 5 and subjected to Western blot analysis. […] Additionally, we conducted further histological analysis on the tumors following ZLC491 treatment.
(§2) Figure 7 ZLC491 depleted CDK12 and CDK13 proteins in vivo. (A) Study design of pharmacodynamics assessment on target engagement of ZLC491 in the MDA-MB-231 xenograft model; (B) immunoblotting of CDK12, CDK13, and α-tubulin in tissue lysate of MDA-MB-231 xenografts model after ZLC491 treatment; (C) protein levels were quantified using ImageJ and normalized to corresponding α-tubulin, then plotted using GraphPad Prism 8.0; (D) immunohistochemistry (IHC) analysis on the tumors by H&E staining and TUNEL assays; (E) TUNEL histology scores were analyzed and plotted by GraphPad Prism 8.0; (F) body weight change during the treatment.
H&E staining of formalin-fixed paraffin embedded (FFPE) tissue sections was performed using Leica Autostainer XL as per manufacturer’s protocol. […] Cells which were intensely stained for DAB pigment were considered to be apoptotic and they were quantified as numbers per 10 high power field (hpf, 400× magnification).

The nature of series [2]: Tolerability and body weight in MDA-MB-231 xenografted mice. It counts as in vivo. As to conditions: 100 and 200 mg/kg orally, 5 days. On the procedure: as §1, §2
(§3) The pharmacodynamics experiments were performed under an approved animal protocol by the Institutional Animal Care & Use Committee of the University of Michigan. Six- to eight-week-old CB17SCID female (Charles River Laboratory) mice were in a regular SPF housing room prior to cell injection. […]

Series [3] concerns MCF 10A cells. The series can be described thus: Cell proliferation assay (CCK-8). The following applies: Homo sapiens, 120 h, 5 days, noncancerous mammary epithelial cells. It counts as cell-based. The procedure: (§4) (A) Transcription level of DDR genes in MDA-MB-231 cells determined by RT-qPCR upon the treatment with vehicle or ZLC491 at different doses for 12 h, ROR1 was used as a negative control; (B) immunoblotting of DDR proteins in MDA-MB-231 cells after the treatment of ZLC491 at different doses for 48 h; (C) cell antiproliferative activity of ZLC491 in multiple TNBC cells as well as several noncancerous cells. Cells were treated with the compound for 5 days; (D,E) antiproliferative potency of cisplatin or olaparib alone or combined with ZLC491 at different doses in MDA-MB-231 cells for 5 days. Data are plotted using the percentage of absorbance relative to DMSO controls. (F) IC50 values and combination index (CI) in drug combination assay. In this model, CI scores estimate the interaction between the two drugs. If CI < 1, the drugs have a synergistic effect and if CI > 1, the drugs have an antagonistic effect. CI = 1 means the drugs have an additive effect. ^aThe drug combination in the table refers to the starting concentration of the two combined drugs, that would both go through serial dilution when treating cells.
(§5) TNBC cell lines MDA-MB-231, MDA-MB-436 and HCC38, human embryonic kidney cell line HEK 293 and human embryonic lung cell line MRC-5 were purchased from American Type Culture Collection (ATCC). Human mammary epithelial cell line MCF 10A was obtained from Chinese Academy of Sciences National Collection of Authenticated Cell Cultures. MDA-MB-231 was maintained in Leibovitz’ s L-15 medium (Gibco) supplemented with 10% fetal bovine serum (FBS; Excell Bio) and 1% penicillin/streptomycin (P/S; Gibco) at 37 °C in a humidified chamber of 100% air atmosphere. MDA-MB-436 and HCC38 were developed in Dulbecco’s modified Eagle medium (DMEM; Gibco) and RPMI-1640 medium (Gibco), respectively, both supplemented with 10% FBS (Excell Bio) and 1% P/S (Gibco), using a 37 °C constant temperature incubator with 5% CO2. HEK 293 and MRC-5 were cultured in the same condition with Eagle’s minimum essential medium (EMEM; Wisent). MCF 10A was grown in Mammary Epithelial Cell Growth Medium BulletKit (Lonza) at 37 °C in a humidified chamber with 5% CO2.
(§6) Tested cells were plated in 96-well or 384-well plates and incubated at 37 °C with or without 5% CO2. After overnight incubation, serial dilutions of compounds were added to the plate. Cell proliferation was measured 5 days after compound treatment using Cell Counting Kit-8 (Selleck) according to the manufacturer’s instructions.

The subject of series [4] is HEK 293 cells. The series can be described thus: Cell proliferation assay (CCK-8). It counts as cell-based. The following applies: Homo sapiens, HEK293, 120 h; 5 days, noncancerous embryonic kidney cells. On the procedure:
as §4, §5, §6

Series [5] deals with MDA-MB-436 cells. The experiment in a line: Cell proliferation assay (CCK-8). It counts as cell-based. The following applies: Homo sapiens, MDA-MB-436, 120 h; 5 days. On the procedure: as §4, §5, §6
Series [6] relates to HCC38 cells. The experiment in a line: Cell proliferation assay (CCK-8). As to conditions: Homo sapiens, HCC38, 120 h; 5 days. In kind it is cell-based. The procedure: as §4, §5, §6
Series [7] has as its system MDA-MB-231 cells. The series can be described thus: Cell proliferation assay (CCK-8). In kind it is cell-based. The following applies: Homo sapiens, MDA-MB-231, 120 h; 5 days. The procedure:
as §4, §5, §6

Series [8] relates to MRC-5 cells. The experiment in a line: Cell proliferation assay (CCK-8). It counts as cell-based. As to conditions: Homo sapiens, MRC5, 120 h; 5 days, noncancerous embryonic lung cells. On the procedure:
as §4, §5, §6

Series [9] relates to CDK12 and CDK13. The experiment in a line: Pharmacodynamic study in MDA-MB-231 xenografted mouse model, Western blot of tumor tissues. In kind it is in vivo. The following applies: 100 and 200 mg/kg orally, 5 consecutive days, vs vehicle, MDA-MB-231 xenograft mice. On the procedure:
as §1, §2, §3
A general note: A western blot detects proteins with antibodies after separation by electrophoresis.

In general, IC50 refers to the concentration that inhibits the measured activity by half. Turning to `N#Cc1ccc(N[C@H]2CC[C@H](N(C(=O)NCc3ccccc3)c3ccc(N4CCN(C5CCN(c6cc7c(cc6F)C(=O)N(C6CCC(=O)NC6=O)C7=O)CC5)CC4)cc3)CC2)nc1` (stereo partly shown) [ZLC491, 3-Benzyl-1-((1r,4r)-4-((5-cyanopyridin-2-yl)amino)cyclohexyl)-1-(4-(4-(1-(2-(2,6-dioxopiperidin-3-yl)-6-fluoro-1,3-dioxoisoindolin-5-yl)piperidin-4-yl)piperazin-1-yl)phenyl)urea], the “apoptosis in tumors (H&E staining, TUNEL IHC)” value in [1] was “marked apoptosis and increased TUNEL signaling”. Further, in series [2], the “body weight change during the treatment” value is “absence of body weight loss”. In series [2], the tolerability entry is “well tolerated”. In addition, the IC50 was more than 10000 nM in [3]; more than 10000 nM in series [4]; 120 nM in series [5]; 190 nM in [6]; 620 nM in series [7]; more than 10000 nM in [8]. For the same compound, the “CDK12 and CDK13 proteins in tumor tissues” value in series [9] is given as “significantly depleted”.
